# Assay results reported in patent US20110251128A1, “THYMOSIN Beta4 PEPTIDES PROMOTE TISSUE REGENERATION” (The Board of Regents of the University of Texas System, priority 2010, published 2011).
# Entries after “also recorded” stand apart in the source; their conditions may differ. Read-outs that look alike come from different tables or passages of the source.
# Columns and labels:
# [1] = system: mature coronary vessels; assay: Immunohistochemistry, smooth muscle α-actin positive vessels at infarction border zone; assay type: in vivo, mouse
# Text: (§1) Animals and Surgical procedures. Mice: Myocardial infarctions were produced in seventy C57BL/6J male mice at 16 weeks of age (25-30 g) by ligation of the left anterior descending (LAD) coronary artery as described (Garner et al., 2003). All animal protocols were reviewed and approved by the University of Texas Southwestern Medical School Institutional Animal Care Advisory Committee and were in compliance with the rules governing animal use as published by the NIH. Mice were sedated in an isoflurane chamber (5%) for 60 seconds until self-designed coaxial mask could be safely applied. The mask supplied continuous isoflurane (2.0%) and oxygen (98.0%) under positive pressure from a Harvard small animal respirator throughout the procedures. Immediately after ligation mice were injected with 200 ng of peptide in […] or […] PBS in collagen intracardially in the infarction border, and with […] PBS intraperitoneally as described (Bock-Marquette et al., 2004). Intraperitoneal injections were repeated every three days after ligation. Effective doses of the peptides were calculated based on optimal in vitro cell migration effect and on biodistribution calculations of full length TB4 (Mora et al., 1997). The inventors administered buprenorphine (0.05 mg/kg) for post-operative pain control. Hearts were removed 1, 14 and 21 days after ligation and processed for further investigations.
# Immunohistochemistry. Adult mouse cardiac tissue was fixed in 4% paraformaldehyde and sections were analyzed by immunohistochemistry. Hearts were sectioned at eight levels from the base to the apex. Serial sections were immunostained with primary antibodies against Pecam-1 and Wt-1 (1:50) (Santa Cruz), Smooth muscle a-actin (1:220) (Sigma), Sarcomeric a-actinin (1:200) (Sigma), Connexin43 (1:200) (Invitrogen), pS368-Connexin43 (1:200) (Cell Signaling Technology) as recommended by the manufacturer. Terminal deoxynucleotidyl transferase dUTP nick end labeling (TUNEL) assay was performed using In Situ Cell Detection kit (Roche). Number of sm a-actin positive capillaries and Wt-1 positive cells were counted at the infarction border zone in high power photographs at all levels of the sections in three peptide, TB4 and PBS treated hearts respectively.
# [2] = system: Connexin43; assay: Connexin43 expression (Western blot) and localization (immunohistology) in infarcted hearts; assay type: in vivo, mouse
# Text: (§2) Animals and Surgical procedures. Mice: Myocardial infarctions were produced in seventy C57BL/6J male mice at 16 weeks of age (25-30 g) by ligation of the left anterior descending (LAD) coronary artery as described (Garner et al., 2003). All animal protocols were reviewed and approved by the University of Texas Southwestern Medical School Institutional Animal Care Advisory Committee and were in compliance with the rules governing animal use as published by the NIH. Mice were sedated in an isoflurane chamber (5%) for 60 seconds until self-designed coaxial mask could be safely applied. […] Effective doses of the peptides were calculated based on optimal in vitro cell migration effect and on biodistribution calculations of full length TB4 (Mora et al., 1997). […]
# (§3) Western blot. […] The protein fraction was isolated from the interphase of the Trizol purification as recommended by the manufacturer; 10 μg of the total protein was loaded and analyzed by Western blot with protein-specific primary antibodies: VEGF, p-Marcks, p-Akt, and GAPDH (1:100) (Santa Cruz), Connexin43 (1:50) (Invitrogen), N-Cadherin (1:5000) (BD Biosciences) and pS368-Connexin43 (1:1000) (Cell Signaling Technology).
# Immunohistochemistry. Adult mouse cardiac tissue was fixed in 4% paraformaldehyde and sections were analyzed by immunohistochemistry. […]
# [3] = system: Wt-1 positive cardiac progenitors; assay: Immunohistochemistry, Wt-1 positive progenitor cells at infarction border; assay type: in vivo, mouse; details: border of the infarction, 21 days / three weeks after peptide injections
# Text: as §2, with “applied. The mask supplied continuous isoflurane (2.0%) and oxygen (98.0%) under positive pressure from a Harvard small animal respirator throughout the procedures.” for “applied.”
# Immunohistochemistry. Adult mouse cardiac tissue was fixed in 4% paraformaldehyde and sections were analyzed by immunohistochemistry. […] Number of sm a-actin positive capillaries and Wt-1 positive cells were counted at the infarction border zone in high power photographs at all levels of the sections in three peptide, TB4 and PBS treated hearts respectively.
# [4] = system: full thickness wound; details: cited from earlier work; for increase of epithelial layer restoration in the wound: topical or injected, compared to untreated
# [5] = system: keratinocytes; details: within four to five hours after treatment, compared to untreated keratinocytes; cited from earlier work
# [6] = system: C57BL/6J male mice after coronary ligation; assay: Myocardial infarction by LAD coronary ligation in adult mice: echocardiography, scar volume, myocyte size; assay type: in vivo, mouse
# Text: as §1
# Analysis of cardiac function by echocardiography: Echocardiograms to assess systolic function were performed using M-mode and 2-dimensional measurements as described previously (Garner et al., 2003). The measurements represented the average of six selected cardiac cycles from at least two separate scans performed in random-blind fashion with papillary muscles used as a point of reference for consistency in level of scan. End diastole was defined as the maximal left ventricle (LV) diastolic dimension and end systole was defined as the peak of posterior wall motion. Single outliers in each group were omitted for statistical analysis. Fractional shortening (FS), a surrogate of systolic function, was calculated from LV dimensions as follows: FS=[(EDD−ESD)/EDD]×100%. Ejection fraction (EF) was calculated as follows: EF=[(edd^3−esd^3)/edd^3]×100%. EDD, end diastolic dimension; ESD, end systolic dimension.
# Calculation of scar volume and myocyte size: Scar volume was calculated after Masson's trichrome staining in six sections through the heart of each mouse using Openlab 3.03 software (Improvision) similar to previously described (Bock-Marquette et al., 2004). Percent area of collagen deposition was measured on each section in blinded fashion and averaged for each mouse.
# [7] = system: N-Cadherin; assay: Western blot of N-Cadherin in infarcted hearts; assay type: in vivo, mouse; details: infarction core and border zone, 21 days after infarction
# Text: as §2, with “applied. The mask supplied continuous isoflurane (2.0%) and oxygen (98.0%) under positive pressure from a Harvard small animal respirator throughout the procedures.” for “applied.”
# as §3
# [8] = system: pS368-Cx43; assay: Western blot of pS368-Connexin43 in infarcted hearts; assay type: in vivo, mouse; details: ischemic border, 21 days, compared to PBS
# Text: as §2, with “applied. The mask supplied continuous isoflurane (2.0%) and oxygen (98.0%) under positive pressure from a Harvard small animal respirator throughout the procedures.” for “applied.”
# as §3
# [9] = system: myocardial cells; assay: Beating frequency of myocardial cells in embryonic cardiac explants on collagen gel; assay type: cell-based, mouse; details: 300 ng peptide or 100 ng TB4; normalized to PBS and TB4 controls (TB4 = 100.00)
# Description: In vitro embryonic cardiac cell migration assay. The outflow tract of the heart was dissected from E11.5 wild-type mouse embryos and placed on rat-tail collagen matrix (Roche) endothelial layer facing down as described (Bock-Marquette et al., 2004; Runyan and Markwald, 1983). After 10 h of attachment, three independent explants were incubated with 300 ng of peptide #1-17, 100 ng of TB4, or 3 μl PBS in […] OPTIMEM medium (Invitrogen/Gibco) respectively. Medium and protein were changed every two days. To monitor migration distance photos were taken daily using Nikon DXM1200F microscope at 4× magnification. Cell migration distance was quantified by ImageJ software (http at rsb.info.nih.gov/ij/) in three separate explants and three measurements for each treatment respectively. Beating frequency of myocardial cells was counted three times at 7-15 days of treatment. Calculations were normalized to PBS and TB4 treated positive and negative controls. After 15 days at 37° C. in 5% CO2, explants were fixed in 4% paraformaldehyde in PBS for 10 min at room temperature. Explants were stored at 4° C. in PBS for further immunocytochemical investigations.
# [10] = system: Akt; assay: Western blot anti-phosphoS473-Akt on heart lysates after coronary ligation; assay type: in vivo, mouse; details: 24 hours after treatment
# Text: as §2, with “applied. The mask supplied continuous isoflurane (2.0%) and oxygen (98.0%) under positive pressure from a Harvard small animal respirator throughout the procedures.” for “applied.”
# as §3
# [11] = 21 days after ligation, compared to PBS
# [12] = three weeks after ligation, intracardiac once plus intraperitoneal every three days
substance,measurement,setting,value
Thymosin β4 [TB4],"number of mature, smooth muscle α-actin positive vessels","[1]; 21 days / three weeks, compared to PBS","increase the number of mature, smooth muscle a-actin positive vessels"
same,number of mature coronary vessels,"[1]; two weeks after treatment, compared to PBS (FIG. 10)",increases
same,Cx43 localization,[2]; border zone of cardiac infarction,stayed primarily at the intercalated discs; also recorded: mainly localized to the intercalated discs
same,Cx43 expression,"[2]; infarcted cores, 21 days after infarction",significant increase in Cx43 expression; also recorded: significant increase in Cx43 level
same,number of Wt-1 positive cells,[3],increased significantly; also recorded: significant increase
same,increase of epithelial layer restoration in the wound,[4]; by day four,42%
same,increase of epithelial layer restoration in the wound,[4]; by day seven,61%
same,wound contraction,[4]; compared to untreated wounds,more than 11%
same,collagen deposition in the wound and angiogenesis,"[4]; rat, in vivo",stimulated collagen deposition
same,increase of keratinocyte migration,[5],two to threefold
same,myocyte diameter / size in the ischemic area,[6]; [11],increased myocyte diameter; also recorded: significantly increase the size of surviving cardiomyocytes
same,scar (Masson's trichrome staining),[6]; [11],significant reduction of the scar
same,end systolic diameter (ESD),[6]; after three weeks,significantly decreased
same,calculated ejection fraction (EF),[6]; [12],50.9+/−3.6%
same,mean fractional shortening (FS),[6]; [12],87.4+/−2.6%
same,N-Cadherin expression,[7],"slight, but non-significant increase; also recorded: slightly upregulated"
same,pS368-Cx43 (Cx43 phosphorylation),[8],significantly lower; also recorded: decrease in Cx43 phosphorylation
same,frequency of myocardial beating,[9],100.00+/−5.03 beats/75 sec
same,Akt activation (phosphoS473-Akt),[10],increased Akt activation
